{"source": "patent US20090023186A1", "about": "“USE OF VALPROIC ACID FOR ENHANCING PRODUCTION OF RECOMBINANT PROTEINS IN MAMMALIAN CELLS” (EXCELLGENE SA, priority 2007, published 2009)", "key": {"CHO DG44 cells": {"test_system": "CHO DG44 cells", "experiment": "Influence of temperature on IgG batch titer and comparison with sodium butyrate (Example 2)", "assay_type": "cell-based, Chinese Hamster", "conditions": "day 5 after transfection", "description": "No. 14571C-[…]; Lot No. 6A0093; SAFC Biosciences, Lenexa, Kans., USA, “Ex-Cell” medium; note: “Ex-Cell” medium-as used herein-refers to a medium comprising 4 mmol/l L-glutamine) in a 50-ml filter tube each (TPP AG, Trasadingen, Switzerland; Cat. No. 87050, Lot 20050174). In a separate set, 10 million suspension-adapted CHO DG44 cells were resuspended in 0.5 ml of ProCHO5 serum-free medium with 4 mmol/[…] hypoxanthine and 0.194 g/l thymidine (BioWhittaker (Lonza), Belgium; Cat. No. BE12-[…]; Lot No. 7 MB0040; “ProCHO5” medium; note: “ProCHO5” medium-as used herein-refers to a medium comprising 4 mmol/[…] hypoxanthine and 0.194 g/l thymidine) in a 50-ml filter tube each (TPP AG, Trasadingen, Switzerland; Cat. No. 87050, Lot 20050174). Then 12.5 μg plasmid DNA at a concentration of 1 μg/μl was added in each tube with the following composition 50% (6.25 μg) p-LC (SEQ ID NO: 1) 50% (6.25 μg) p-HC (SEQ ID NO: 3). Plasmid p-LC comprises the genetic information for the production of the light chain of an IgG antibody, plasmid p-HC comprises the genetic information for the production of the heavy chain of an IgG antibody. The particular vector constructs used in the present invention can also be obtained from the inventors. The inventors can be contacted via e-mail at […]. Moreover, commercial services do exist that produce any desired nucleotide sequence even comprising several kilobase pairs including complete expression cassettes in plasmid backgrounds (e.g., Invitrogen, Carlsbad, USA; Geneart, Germany.) Thus, providing the genetic sequence information of the plasmids should enable one of ordinary skill in the art to order the plasmids of the present invention at one of the commercial services listed. After shortly mixing the DNA with the cells by gentle shaking, 25 μg of 25-kd linear polyethyleneimine (“PEI”; Polysciences, Eppelheim, Germany; [2]) were added at a concentration of 1 μg/μl to each of the tubes. After shortly mixing by gentle shaking, the filter tubes containing the cells together with the DNA and PEI were transferred into an orbital shaker (Kühner Shaker Cabinet ISF-4-W, “Kühner shaker”, Kühner AG, Birsfelden, Switzerland), and the cells were incubated for 4 hours at 37° C. in a 5% CO2 atmosphere under shaking at 180 rpm. After that time, 4.5 ml of Ex-Cell medium were added to each of the filter tubes containing HEK 293 cells and 4.5 ml of Pro-CHO5 were added to each of the filter tubes containing CHO DG44 cells. […] No. […] Sigma-Aldrich Chemie GmbH, Industriestrasse 25, CH-9471 Buchs SG) was added to the corresponding tubes at the corresponding final concentrations. The cells then were returned into the Kühner shaker. Half the tubes were incubated at 37° C. in a 5% CO2 atmosphere under shaking at 180 rpm, the other half was incubated at 31° C. […] The ELISA was performed as published in prior art. In short, Goat anti-human kappa light chain IgG (Biosource) was used for coating the ELISA-plates, and with AP-conjugated goat anti-human gamma chain IgG (Biosource) the synthesized IgG1 was detected. NPP was used as a substrate for the alkaline phosphatase. Absorption was measured at 405 nm against 490 nm using a microplate reader (SPECTRAmaxTM340; Molecular Devices, Palo Alto, Calif., USA)."}, "CHO cells": {"test_system": "CHO cells", "experiment": "Stable cell lines, IgG batch titer by ELISA (Example 5)", "assay_type": "cell-based, Chinese Hamster", "conditions": "0.5 mmol/l final VPA; stable mass culture; 5 days after VPA addition"}, "[1]": {"conditions": "3.8 mmol/l VPA, relative to control = 1"}}, "data": [{"molecule": "CCCC(CCC)C(=O)O", "note": "[VPA, valproic acid]", "values": [{"measurement": "Batch titer increase at 31° C.", "setting": "CHO DG44 cells; [1]", "value": "1.5 ± 0.1"}, {"measurement": "Batch titer increase at 37° C.", "setting": "CHO DG44 cells; [1]", "value": "2.1 ± 0.1"}, {"measurement": "performance compared with sodium butyrate (batch titer increase)", "setting": "CHO DG44 cells; 31° C. and 37° C.", "value": "slightly better performance than sodium butyrate"}, {"measurement": "Batch titer CHO", "setting": "CHO cells", "value": "35.5 ± 2.5", "unit": "mg/L"}]}]}
